{"source": "PubChem BioAssay AID1963986", "about": "(Molecular Pharmacology Branch, DTP, NCI, 2024);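 note: spheroids exposed to compound for 7 days before viability read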;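 for viability, T/C: 100% = DMSO vehicle-treated spheroids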", "test_system": "171881-019-R-J1-PDC tumor spheroid viability", "assay": "Anticancer human tumor 171881-019-R-J1-PDC patient-derived invasive breast carcinoma cell line growth inhibition [PI3K]", "details": "spheroids with HUVEC and MSC; for IC50: curve of first compound; for viability, T/C: stronger effect = lower value", "in_short": "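Stroma-containing spheroids: tumor line, pooled-donor HUVEC, hMSC. Treatments: targeted agents with PI3K inhibitors. Dosing: clinically relevant, half-log spacing, 10 microM ceiling without known Cmax. Read-out: cell viability.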", "key": {"[1]": {"details": "second compound 0.00316 µM, first compound 0.0316 µM"}, "[2]": {"details": "second compound 0.00316 µM, first compound 0.1 µM"}, "[3]": {"details": "second compound 0.00316 µM, first compound 0.316 µM"}, "[4]": {"details": "second compound 0.00316 µM, first compound 1 µM"}, "[5]": {"details": "second compound 0.00316 µM, first compound 3.16 µM"}, "[6]": {"details": "second compound 0.00316 µM, first compound 10 µM"}, "[7]": {"details": "second compound 0.01 µM, first compound 0.0316 µM"}, "[8]": {"details": "second compound 0.01 µM, first compound 0.1 µM"}, "[9]": {"details": "second compound 0.01 µM, first compound 0.316 µM"}, "[10]": {"details": "second compound 0.01 µM, first compound 1 µM"}, "[11]": {"details": "second compound 0.01 µM, first compound 3.16 µM"}, "[12]": {"details": "second compound 0.01 µM, first compound 10 µM"}, "[13]": {"details": "second compound 0.0316 µM, first compound 0.0316 µM"}, "[14]": {"details": "second compound 0.0316 µM, first compound 0.1 µM"}, "[15]": {"details": "second compound 0.0316 µM, first compound 0.316 µM"}, "[16]": {"details": "second compound 0.0316 µM, first compound 1 µM"}, "[17]": {"details": "second compound 0.0316 µM, first compound 3.16 µM"}, "[18]": {"details": "second compound 0.0316 µM, first compound 10 µM"}, "[19]": {"details": "second compound 0.1 µM, first compound 0.0316 µM"}, "[20]": {"details": "second compound 0.1 µM, first compound 0.1 µM"}, "[21]": {"details": "second compound 0.1 µM, first compound 0.316 µM"}, "[22]": {"details": "second compound 0.1 µM, first compound 1 µM"}, "[23]": {"details": "second compound 0.1 µM, first compound 3.16 µM"}, "[24]": {"details": "second compound 0.1 µM, first compound 10 µM"}, "[25]": {"details": "second compound 0.316 µM, first compound 0.0316 µM"}, "[26]": {"details": "second compound 0.316 µM, first compound 0.1 µM"}, "[27]": {"details": "second compound 0.316 µM, first compound 0.316 µM"}, "[28]": {"details": "second compound 0.316 µM, first compound 1 µM"}, "[29]": {"details": "second compound 0.316 µM, first compound 3.16 µM"}, "[30]": {"details": "second compound 0.316 µM, first compound 10 µM"}, "[31]": {"details": "second compound 1 µM, first compound 0.0316 µM"}, "[32]": {"details": "second compound 1 µM, first compound 0.1 µM"}, "[33]": {"details": "second compound 1 µM, first compound 0.316 µM"}, "[34]": {"details": "second compound 1 µM, first compound 1 µM"}, "[35]": {"details": "second compound 1 µM, first compound 3.16 µM"}, "[36]": {"details": "second compound 1 µM, first compound 10 µM"}}}
{"smiles": "CC(Cn1ccc(-c2ccc(C#N)c(Cl)c2)n1)NC(=O)c1cc(C(C)O)[nH]n1", "note": "(centres undefined) + COc1c(OCCCN2CCOCC2)ccc2c3n(c(=NC(=O)c4cnc(N)nc4)nc12)CCN3", "values": [{"measurement": "IC50", "setting": "second compound 0.00316 µM", "value": "> 10000", "unit": "nM"}, {"measurement": "IC50", "setting": "second compound 0.01 µM", "value": "< 31.6", "unit": "nM"}, {"measurement": "IC50", "setting": "second compound 0.0316 µM", "value": "< 31.6", "unit": "nM"}, {"measurement": "IC50", "setting": "second compound 0.1 µM", "value": "< 31.6", "unit": "nM"}, {"measurement": "IC50", "setting": "second compound 0.316 µM", "value": "< 31.6", "unit": "nM"}, {"measurement": "IC50", "setting": "second compound 1 µM", "value": "< 31.6", "unit": "nM"}, {"measurement": "viability, T/C", "setting": "[1]", "value": 64.2, "unit": "%"}, {"measurement": "viability, T/C", "setting": "[2]", "value": 66.1, "unit": "%"}, {"measurement": "viability, T/C", "setting": "[3]", "value": 55, "unit": "%"}, {"measurement": "viability, T/C", "setting": "[4]", "value": 62, "unit": "%"}, {"measurement": "viability, T/C", "setting": "[5]", "value": 64.5, "unit": "%"}, {"measurement": "viability, T/C", "setting": "[6]", "value": 48.1, "unit": "%"}, {"measurement": "viability, T/C", "setting": "[7]", "value": 48.6, "unit": "%"}, {"measurement": "viability, T/C", "setting": "[8]", "value": 52.4, "unit": "%"}, {"measurement": "viability, T/C", "setting": "[9]", "value": 45.4, "unit": "%"}, {"measurement": "viability, T/C", "setting": "[10]", "value": 51.1, "unit": "%"}, {"measurement": "viability, T/C", "setting": "[11]", "value": 45, "unit": "%"}, {"measurement": "viability, T/C", "setting": "[12]", "value": 32.2, "unit": "%"}, {"measurement": "viability, T/C", "setting": "[13]", "value": 22.5, "unit": "%"}, {"measurement": "viability, T/C", "setting": "[14]", "value": 25.8, "unit": "%"}, {"measurement": "viability, T/C", "setting": "[15]", "value": 21.9, "unit": "%"}, {"measurement": "viability, T/C", "setting": "[16]", "value": 22.7, "unit": "%"}, {"measurement": "viability, T/C", "setting": "[17]", "value": 24.5, "unit": "%"}, {"measurement": "viability, T/C", "setting": "[18]", "value": 17.4, "unit": "%"}, {"measurement": "viability, T/C", "setting": "[19]", "value": 6.84, "unit": "%"}, {"measurement": "viability, T/C", "setting": "[20]", "value": 7.08, "unit": "%"}, {"measurement": "viability, T/C", "setting": "[21]", "value": 6.29, "unit": "%"}, {"measurement": "viability, T/C", "setting": "[22]", "value": 6.57, "unit": "%"}, {"measurement": "viability, T/C", "setting": "[23]", "value": 7.04, "unit": "%"}, {"measurement": "viability, T/C", "setting": "[24]", "value": 5.04, "unit": "%"}, {"measurement": "viability, T/C", "setting": "[25]", "value": 1.65, "unit": "%"}, {"measurement": "viability, T/C", "setting": "[26]", "value": 1.42, "unit": "%"}, {"measurement": "viability, T/C", "setting": "[27]", "value": 1.54, "unit": "%"}, {"measurement": "viability, T/C", "setting": "[28]", "value": 1.44, "unit": "%"}, {"measurement": "viability, T/C", "setting": "[29]", "value": 1.55, "unit": "%"}, {"measurement": "viability, T/C", "setting": "[30]", "value": 2.61, "unit": "%"}, {"measurement": "viability, T/C", "setting": "[31]", "value": 1.17, "unit": "%"}, {"measurement": "viability, T/C", "setting": "[32]", "value": 0.9, "unit": "%"}, {"measurement": "viability, T/C", "setting": "[33]", "value": 2.01, "unit": "%"}, {"measurement": "viability, T/C", "setting": "[34]", "value": 1.22, "unit": "%"}, {"measurement": "viability, T/C", "setting": "[35]", "value": 2.13, "unit": "%"}, {"measurement": "viability, T/C", "setting": "[36]", "value": 3.1, "unit": "%"}]}
{"smiles": "CC1(C)CCC(Nc2ncc(C(F)(F)F)c(-c3c[nH]c4c(P(C)(C)=O)c(C#N)ccc34)n2)CN1", "note": "(centres undefined) + COc1c(OCCCN2CCOCC2)ccc2c3n(c(=NC(=O)c4cnc(N)nc4)nc12)CCN3", "values": [{"measurement": "IC50", "setting": "second compound 0.00316 µM", "value": 4000, "unit": "nM"}, {"measurement": "IC50", "setting": "second compound 0.01 µM", "value": "< 31.6", "unit": "nM"}, {"measurement": "IC50", "setting": "second compound 0.0316 µM", "value": "< 31.6", "unit": "nM"}, {"measurement": "IC50", "setting": "second compound 0.1 µM", "value": "< 31.6", "unit": "nM"}, {"measurement": "IC50", "setting": "second compound 0.316 µM", "value": "< 31.6", "unit": "nM"}, {"measurement": "IC50", "setting": "second compound 1 µM", "value": "< 31.6", "unit": "nM"}, {"measurement": "viability, T/C", "setting": "[1]", "value": 51.9, "unit": "%"}, {"measurement": "viability, T/C", "setting": "[2]", "value": 57.2, "unit": "%"}, {"measurement": "viability, T/C", "setting": "[3]", "value": 60.6, "unit": "%"}, {"measurement": "viability, T/C", "setting": "[4]", "value": 69, "unit": "%"}, {"measurement": "viability, T/C", "setting": "[5]", "value": 63.2, "unit": "%"}, {"measurement": "viability, T/C", "setting": "[6]", "value": 9.56, "unit": "%"}, {"measurement": "viability, T/C", "setting": "[7]", "value": 44.6, "unit": "%"}, {"measurement": "viability, T/C", "setting": "[8]", "value": 49.3, "unit": "%"}, {"measurement": "viability, T/C", "setting": "[9]", "value": 50.9, "unit": "%"}, {"measurement": "viability, T/C", "setting": "[10]", "value": 55.3, "unit": "%"}, {"measurement": "viability, T/C", "setting": "[11]", "value": 45.5, "unit": "%"}, {"measurement": "viability, T/C", "setting": "[12]", "value": 3.97, "unit": "%"}, {"measurement": "viability, T/C", "setting": "[13]", "value": 23.4, "unit": "%"}, {"measurement": "viability, T/C", "setting": "[14]", "value": 27.9, "unit": "%"}, {"measurement": "viability, T/C", "setting": "[15]", "value": 27.1, "unit": "%"}, {"measurement": "viability, T/C", "setting": "[16]", "value": 33.2, "unit": "%"}, {"measurement": "viability, T/C", "setting": "[17]", "value": 23.2, "unit": "%"}, {"measurement": "viability, T/C", "setting": "[18]", "value": 1.05, "unit": "%"}, {"measurement": "viability, T/C", "setting": "[19]", "value": 11.1, "unit": "%"}, {"measurement": "viability, T/C", "setting": "[20]", "value": 11.1, "unit": "%"}, {"measurement": "viability, T/C", "setting": "[21]", "value": 11.3, "unit": "%"}, {"measurement": "viability, T/C", "setting": "[22]", "value": 12.7, "unit": "%"}, {"measurement": "viability, T/C", "setting": "[23]", "value": 7.29, "unit": "%"}, {"measurement": "viability, T/C", "setting": "[24]", "value": 0.37, "unit": "%"}, {"measurement": "viability, T/C", "setting": "[25]", "value": 2.05, "unit": "%"}, {"measurement": "viability, T/C", "setting": "[26]", "value": 1.65, "unit": "%"}, {"measurement": "viability, T/C", "setting": "[27]", "value": 1.41, "unit": "%"}, {"measurement": "viability, T/C", "setting": "[28]", "value": 1.53, "unit": "%"}, {"measurement": "viability, T/C", "setting": "[29]", "value": 0.65, "unit": "%"}, {"measurement": "viability, T/C", "setting": "[30]", "value": 0.12, "unit": "%"}, {"measurement": "viability, T/C", "setting": "[31]", "value": 1.55, "unit": "%"}, {"measurement": "viability, T/C", "setting": "[32]", "value": 0.66, "unit": "%"}, {"measurement": "viability, T/C", "setting": "[33]", "value": 0.6, "unit": "%"}, {"measurement": "viability, T/C", "setting": "[34]", "value": 0.51, "unit": "%"}, {"measurement": "viability, T/C", "setting": "[35]", "value": 1.51, "unit": "%"}, {"measurement": "viability, T/C", "setting": "[36]", "value": 0.25, "unit": "%"}]}
